This note sets out measurements from ChEMBL document CHEMBL1201862, “PubChem BioAssay data set” (2004).

Holding throughout (experiment): growth of human tumour cells (NCI), 48 h
Assay [1] has as its system SNB-19.
Assay [2] has as its system HCT-15.
Assay [3] concerns SK-MEL-2.
In assay [4] the test system is IGROV-1.
In assay [5] the test system is NCI-H460.
Assay [6] concerns MCF7.
Assay [7] relates to HCT-116.
Assay [8] concerns MDA-MB-435.
In assay [9] the test system is CAKI-1.
Assay [10] deals with NCI-H226.
In assay [11] the test system is PC-3.
Assay [12] has as its system LOX IMVI.
In assay [13] the test system is TK-10.
In assay [14] the test system is NCI-H522.
Assay [15] deals with SK-MEL-28.
In assay [16] the test system is ACHN.
Assay [17] concerns MDA-N.
Assay [18] relates to U-251.
Assay [19] has as its system SN12C.
Assay [20] deals with MDA-MB-231.

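Assay format: 96-well plates, 48-hour exposure. Here, GI50 denotes the concentration required for 50% inhibition of growth.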 Activity calls are given as the source filed them. Cut-off read from the data, not from the text of the source: active = GI50 up to about 1.1 µM and inactive = higher.

As for `CC1(C)C(=O)/C=C\C(=O)C(C)(C)C(=O)/C=C\C(=O)C(C)(C)C2=CC=C(O2)C(C)(C)C(=O)/C=C\C1=O`, the GI50 in assay [1] was 16.7 µM (inactive); in assay [2], 3.7 µM; in assay [3] it was 12.1 µM (inactive); in assay [4] it was 9.18 µM (inactive); in assay [5] it was 20.5 µM (inactive); in assay [6], 10.6 µM (inactive). For the same compound, the GI50 is 2.08 µM (inactive) in [7]; 15.7 µM (inactive) in assay [8]; 3.84 µM (inactive) in assay [9]; 13.6 µM (inactive) in assay [10]; 15.8 µM (inactive) in assay [11]; 5.14 µM (inactive) in [12]. In addition, the GI50 in [13] was 7.6 µM (inactive); in assay [14], 1.44 µM (inactive); in assay [15], 4.99 µM (inactive); in assay [16], 3.63 µM (inactive); in assay [17], 5.01 µM (inactive); in assay [18], 15.7 µM (inactive). For the same compound, the GI50 in assay [19] is 5.48 µM (inactive).

For the compound `Cc1ccc(C(=O)N2CCN(C(=O)c3ccc(C)cc3)c3ccccc32)cc1`, the GI50 in assay [1] was 5.77 µM (inactive); in [2], 1.94 µM; in assay [3] it was 1.94 µM (inactive); in [4] it was 4.91 µM (inactive); in assay [5], 4.14 µM (inactive); in assay [6], 2.48 µM (inactive). Further, the GI50 in assay [7] is 3.04 µM (inactive); in [20], 23.7 µM (inactive); in [9], 7 µM (inactive); in assay [11] it was 2.86 µM (inactive); in assay [12], 6.44 µM (inactive); in assay [13], 10 µM (inactive). The GI50 in [14] is 1.85 µM (inactive); in assay [15], 5.2 µM (inactive); in assay [16] it was 9.59 µM (inactive); in [17], 0.274 µM (active); in assay [18] it was 1.9 µM (inactive); in [19] it was 6.92 µM (inactive).

On to `COc1cc2c(cc1OCCCC(=O)Nc1cc(C(=O)NCCCN(C)C)n(C)n1)N=CC1CCCN1C2=O` (configuration not stated), for which the GI50 was 10 µM (inactive) in [1]; 8.55 µM in [2]; 10.8 µM (inactive) in assay [3]; 6.7 µM (inactive) in [4]; 9.89 µM (inactive) in assay [5]; 10.1 µM (inactive) in assay [6]. Moreover, the GI50 in assay [7] is 12.9 µM (inactive); in assay [20], 19.7 µM (inactive); in assay [8], 40.9 µM (inactive); in assay [9], 21.6 µM (inactive); in [11], 17.1 µM (inactive); in assay [12], 7.71 µM (inactive). The GI50 in assay [13] was 7.4 µM (inactive); in assay [14], 5.37 µM (inactive); in [15] it was 5.46 µM (inactive); in [16], 6.44 µM (inactive); in assay [17] it was 23.3 µM (inactive); in assay [18], 8.77 µM (inactive). Further, the GI50 in [19] is 7.11 µM (inactive).

As for `COc1ccccc1NC(=S)N/N=C(/C)c1ccccn1`, the GI50 in [1] is 6.19 µM (inactive); in assay [2], < 0.0318 µM; in [3], 7.5 µM (inactive); in assay [4], < 0.01 µM (active); in [5], < 0.0132 µM (active); in assay [6], < 0.01 µM (active). In addition, the GI50 in assay [7] was < 0.01 µM (active); in assay [20], < 0.01 µM (active); in assay [8] it was 0.968 µM (active); in assay [9] it was 0.0132 µM (active); in assay [11] it was < 0.01 µM (active); in [12], < 0.01 µM (active). The GI50 is 0.0644 µM (active) in assay [13]; 1.71 µM (inactive) in assay [15]; < 0.0106 µM (active) in assay [16]; 0.637 µM (active) in assay [17]; < 0.0172 µM (active) in assay [18]; 0.178 µM (active) in [19].

Regarding `CC1(C)C(=O)C2(OS(=O)(=O)C(F)(F)F)CCC1C2` (configuration not stated), the GI50 in assay [1] is > 100 µM (inactive); in assay [2], > 100 µM; in [3], > 100 µM (inactive); in [4], > 100 µM (inactive); in [5] it was > 100 µM (inactive); in assay [6] it was > 100 µM (inactive). The GI50 in assay [7], in assay [20], in assay [8], in [9], in [10] and in [11] was > 100 µM (inactive) each time. In addition, the GI50 in assay [12], in [13], in [15], in [16], in assay [17] and in assay [18] was > 100 µM (inactive) each time. The GI50 in assay [19] was > 100 µM (inactive).

Consider `COC(CO[Si](C)(C)N[Si](C)(C)OCC(OC)c1ccccc1)c1ccccc1` (configuration not stated), for which the GI50 is > 100 µM (inactive) in [1]; > 100 µM in [2]; > 100 µM (inactive) in assay [3]; > 100 µM (inactive) in assay [4]; > 100 µM (inactive) in assay [5]; > 100 µM (inactive) in assay [6]. In addition, the GI50 in assay [7], in assay [8], in [9], in assay [10], in [11] and in [12] was > 100 µM (inactive) throughout. Besides, the GI50 in assay [13], in assay [15], in [16], in assay [17], in [18] and in assay [19] was > 100 µM (inactive) each time.

On to `CCCCCCCCCCCCCCCCCCNc1ccn(C2OC(COP(=O)(O)OC3CC(n4cc(F)c(=O)[nH]c4=O)OC3COP(=O)(O)OCC3OC(n4ccc(N)nc4=O)C(O)C3O)C(O)C2O)c(=O)n1` (configuration not stated), for which the GI50 in assay [1] is 9.2 µM (inactive); in assay [2], 12.2 µM; in assay [3] it was 18.1 µM (inactive); in [4], 15.2 µM (inactive); in assay [5], < 0.0129 µM (active); in assay [6], 0.276 µM (active). Further, the GI50 is 1.03 µM (active) in assay [7]; 26.2 µM (inactive) in assay [20]; 8.18 µM (inactive) in assay [8]; 4.47 µM (inactive) in assay [9]; > 24 µM (inactive) in assay [10]; 7.14 µM (inactive) in [11]. The GI50 in assay [12] was 0.139 µM (active); in [13], 2.56 µM (inactive); in assay [14] it was 13 µM (inactive); in assay [15], 24.7 µM (inactive); in assay [16], 0.143 µM (active); in assay [18] it was 7.67 µM (inactive). In addition, in [19], the GI50 was 15.8 µM (inactive).

With `NCCCN(CCCCN(CCCN)Cc1ccccc1)Cc1ccccc1`, the GI50 was 10.7 µM (inactive) in [1]; > 100 µM in [2]; 17.1 µM (inactive) in assay [4]; 15.3 µM (inactive) in assay [5]; 25.1 µM (inactive) in [6]; 30.8 µM (inactive) in [7]. The GI50 in [20] is > 100 µM (inactive); in [8], 56.1 µM (inactive); in assay [9] it was 15.8 µM (inactive); in [10], 21.2 µM (inactive); in [12], 19.3 µM (inactive); in assay [13], > 100 µM (inactive). Also, the GI50 in assay [14] is 10.9 µM (inactive); in [15], > 100 µM (inactive); in assay [16], 32.4 µM (inactive); in assay [17] it was 18.4 µM (inactive); in assay [18], 42.3 µM (inactive); in assay [19] it was 16 µM (inactive).

For `Cc1ccc2nc(-c3ccc(NC(=O)c4ccc(N)cc4)c(S(=O)(=O)O)c3)sc2c1`, the GI50 in assay [1] is > 100 µM (inactive); in assay [2], > 100 µM; in assay [4] it was > 100 µM (inactive); in assay [5] it was > 100 µM (inactive); in [6], > 100 µM (inactive); in assay [7], > 100 µM (inactive). The GI50 in assay [20], in assay [8], in assay [9], in assay [10], in [11] and in assay [12] was > 100 µM (inactive) throughout. Moreover, the GI50 in assay [13], in assay [14], in assay [15], in [16], in assay [17] and in assay [18] was > 100 µM (inactive) throughout. Moreover, the GI50 in assay [19] is > 100 µM (inactive).

For `c1ccc([P+](CCSCCSCC[P+](c2ccccc2)(c2ccccc2)c2ccccc2)(c2ccccc2)c2ccccc2)cc1`, the GI50 in assay [1] was > 100 µM (inactive); in assay [2] it was > 100 µM; in [3] it was > 100 µM (inactive); in [4], > 100 µM (inactive); in assay [5] it was > 100 µM (inactive); in assay [6], 40.5 µM (inactive). Further, the GI50 in assay [7], in assay [20], in assay [8], in assay [10], in assay [13] and in assay [15] was > 100 µM (inactive) in each case. For the same compound, the GI50 in assay [16] is > 100 µM (inactive); in assay [17] it was > 100 µM (inactive); in [18] it was 24.7 µM (inactive); in assay [19], > 100 µM (inactive).

Turning to `O=[N+]([O-])c1ccc(-c2nnc(C34CC5CC(CC(C5)C3)C4)o2)cc1`, the GI50 is > 100 µM (inactive) in assay [1]; > 100 µM in [2]; > 100 µM (inactive) in assay [3]; > 100 µM (inactive) in assay [4]; > 100 µM (inactive) in assay [5]; > 100 µM (inactive) in [7]. For the same compound, the GI50 in assay [20], in [8], in assay [9], in assay [10], in [11] and in assay [12] was > 100 µM (inactive) in each case. For the same compound, the GI50 in [13], in assay [14], in assay [15], in assay [16], in assay [17] and in assay [18] was > 100 µM (inactive) each time. Further, the GI50 in assay [19] was > 100 µM (inactive).
